target: T1, human Farnesoid X Receptor (FXR) ligand binding domain (GST-FXR LBD) (Homo sapiens, UniProt Q96RI1); test: Human GST-FXR LBD co-activator interaction assay (FXR HTRF assay); format: biochemical; settings: GST-FXR LBD interaction with biotin-labeled SRC-1 peptide, FRET, response relative to GW4064, read-out: FXR coactivator interaction assay (HTRF)
T1 construct: purchased Invitrogen
T1 sequence (Q96RI1 193-472 isoform Q96RI1-2): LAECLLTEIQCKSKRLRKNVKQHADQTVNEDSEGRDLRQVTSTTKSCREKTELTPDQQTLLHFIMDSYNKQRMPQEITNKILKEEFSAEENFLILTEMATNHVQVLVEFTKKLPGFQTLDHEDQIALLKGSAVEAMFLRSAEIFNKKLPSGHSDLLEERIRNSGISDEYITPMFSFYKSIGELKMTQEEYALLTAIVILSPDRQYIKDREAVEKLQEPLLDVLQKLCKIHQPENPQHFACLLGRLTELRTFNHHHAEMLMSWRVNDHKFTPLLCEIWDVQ
Source text: Human GST-FXR LBD Co-Activator Interaction Assay
The FXR HTRF assay is a biochemical assay measuring the interaction between FXR and a coactivator protein (SRC1). The ligand-induced interaction with a coactivator protein is a critical step in transcriptional activation by FXR. Thus, this is an assay designed to measure FXR agonist activity of the test compounds.
Recombinant human Farnesoid X Receptor (FXR) ligand binding domain (amino acids 193-472) fused to glutathione S-transferase (GST) purified protein (GST-FXR LBD) was purchased (Invitrogen). The ligand-dependent interaction between GST-FXR LBD and a peptide derived from Steroid Receptor Coactivator-1 (SRC-1) was monitored by Fluorescence Resonance Energy Transfer (FRET). […] Test compounds (in DMSO solution) and detection reagents (anti-GST-Cryptate labeled antibody and Streptavidin-XL665 conjugate; CisBio) were added in assay buffer containing 50 mM KF. Plates are incubated at room temperature in the dark for 2.5 hrs before reading on an Envision (PerkinElmer) at 665 nm and 590 nm. The HTRF assay results were calculated from the 665 nm/590 nm ratio (ratio=(A665 nm/A590 nm)×10^4) and expressed in Delta F %=(Ratiosample−Rationegative)/Rationegative×100.
A negative control (without Streptavidin-XL665) was run with each assay and represented the background fluorescence. A reference FXR agonist, (E)-3-(2-chloro-4-((3-(2,6-dichlorophenyl)-5-isopropylisoxazol-4-yl)methoxy)styryl)benzoic acid (Compound GW4064), was included in each experiment as positive control. The efficacy of each test compound was compared to that of GW4064. At each concentration, the relative activity of the test compound was expressed as Response %=(Rsample−RDMSO)/(Rpositive−RDMSO), where Rsample is the HTRF response (expressed in Delta F %) for the test compound, Rpositive is the maximal response for GW4064 at saturating concentrations, and RDMSO is the response for DMSO control. The EC50 values were calculated using GraphPad Prism (GraphPad Software) using non-linear regression curve fit (log(agonist) vs. response-variable slope (four parameters)).

Row | EC50 [nM] | SMILES
1 | 1.5 | Cn1nc(C(=O)N(CC(=O)Nc2cc(C(=O)O)ccc2F)Cc2ccccc2)c2c1-c1ccccc1OC2 [Compound 33, 3-(2-(N-benzyl-1-methyl-1,4-dihydrochromeno[4,3-c]pyrazole-3-carboxamido)acetamido)-4-fluorobenzoic acid]
2 | 2.1 | Cn1nc(C(=O)N(CC(=O)Nc2cc(C(=O)O)ccc2F)Cc2ccccc2F)c2c1-c1cc(Cl)ccc1OCC2 [Compound 34, 3-(2-(9-chloro-N-(2-fluorobenzyl)-1-methyl-4,5-dihydro-1H-benzo[2,3]oxepino[4,5-c]pyrazole-3-carboxamido)acetamido)-4-fluorobenzoic acid]
3 | 0.77 | Cn1nc(C(=O)N(CC(=O)Nc2cccc(C(=O)O)c2)Cc2ccccc2F)c2c1-c1cc(Cl)ccc1OC2 [Compound 35, 3-(2-(8-chloro-N-(2-fluorobenzyl)-1-methyl-1,4-dihydrochromeno[4,3-c]pyrazole-3-carboxamido)acetamido)benzoic Acid]
4 | 33 | Cn1nc(C(=O)N(CC(=O)Nc2cc(C(=O)O)ccc2F)CC2CCCC2)c2c1-c1cc(Cl)ccc1OC2 [Compound 36, 3-(2-(8-chloro-N-(cyclopentylmethyl)-1-methyl-1,4-dihydrochromeno[4,3-c]pyrazole-3-carboxamido)acetamido)-4-fluorobenzoic Acid]
5 | 24 | Cn1nc(C(=O)N(CC(=O)Nc2cccc(C(=O)O)c2)CC2CCCC2)c2c1-c1cc(Cl)ccc1OC2 [Compound 37, 3-(2-(8-chloro-N-(cyclopentylmethyl)-1-methyl-1,4-dihydrochromeno[4,3-c]pyrazole-3-carboxamido)acetamido)benzoic Acid]
6 | 2.6 | Cn1nc(C(=O)N(CC(=O)Nc2cc(F)cc(C(=O)O)c2)Cc2ccccc2F)c2c1-c1cc(Cl)ccc1OC2 [Compound 38, 3-(2-(8-chloro-N-(2-fluorobenzyl)-1-methyl-1,4-dihydrochromeno[4,3-c]pyrazole-3-carboxamido)acetamido)-5-fluorobenzoic Acid]
7 | 5.9 | Cc1ccc(C(=O)O)cc1NC(=O)CN(Cc1ccccc1F)C(=O)c1nn(C)c2c1COc1ccc(Cl)cc1-2 [Compound 39]
8 | 8.6 | CC(CNC(=O)CN(Cc1ccccc1F)C(=O)c1nn(C)c2c1COc1ccc(Cl)cc1-2)C(=O)O (centres unmarked) [Compound 40, 3-(2-(8-chloro-N-(2-fluorobenzyl)-1-methyl-1,4-dihydrochromeno[4,3-c]pyrazole-3-carboxamido)acetamido)-2-methylpropanoic Acid]
9 | 4 | Cn1nc(C(=O)N(CC(=O)NCC(C)(C)C(=O)O)Cc2ccccc2F)c2c1-c1cc(Cl)ccc1OC2 [Compound 41, 3-(2-(8-chloro-N-(2-fluorobenzyl)-1-methyl-1,4-dihydrochromeno[4,3-c]pyrazole-3-carboxamido)acetamido)-2,2-dimethylpropanoic acid]
10 | 2.5 | Cn1nc(C(=O)N(CC(=O)NCC2(C(=O)O)CC2)Cc2ccccc2F)c2c1-c1cc(Cl)ccc1OC2 [Compound 42, 1-((2-(8-chloro-N-(2-fluorobenzyl)-1-methyl-1,4-dihydrochromeno[4,3-c]pyrazole-3-carboxamido)acetamido)methyl) cyclopropanecarboxylic acid]
11 | 18 | Cn1nc(C(=O)N(CCOc2ccc(C(=O)O)cc2F)Cc2ccccc2F)c2c1-c1cc(Cl)ccc1OC2 [Compound 43, 4-(2-(8-chloro-N-(2-fluorobenzyl)-1-methyl-1,4-dihydrochromeno[4,3-c]pyrazole-3-carboxamido)ethoxy)-3-fluorobenzoic Acid]
12 | 11 | Cn1nc(C(=O)N(CCOc2cccc(C(=O)O)c2)Cc2ccccc2F)c2c1-c1cc(Cl)ccc1OC2 [Compound 44, 3-(2-(8-chloro-N-(2-fluorobenzyl)-1-methyl-1,4-dihydrochromeno[4,3-c]pyrazole-3-carboxamido)ethoxy)benzoic acid]
13 | 15 | Cn1nc(C(=O)N(CCOc2ccc(C(=O)O)cc2)Cc2ccccc2F)c2c1-c1cc(Cl)ccc1OC2 [Compound 45, 4-(2-(8-chloro-N-(2-fluorobenzyl)-1-methyl-1,4-dihydrochromeno[4,3-c]pyrazole-3-carboxamido)ethoxy)benzoic acid]
14 | 3.2 | Cc1cc(C(=O)O)ccc1OCCN(Cc1ccccc1F)C(=O)c1nn(C)c2c1COc1ccc(Cl)cc1-2 [Compound 46]
15 | 0.53 | Cc1cc(C(=O)O)cc(C)c1OCCN(Cc1ccccc1F)C(=O)c1nn(C)c2c1COc1ccc(Cl)cc1-2 [Compound 47, 4-(2-(8-chloro-N-(2-fluorobenzyl)-1-methyl-1,4-dihydrochromeno[4,3-c]pyrazole-3-carboxamido)ethoxy)-3,5-dimethylbenzoic acid]
16 | 61 | Cn1nc(C(=O)N(CCOc2cc(C(=O)O)ccc2F)Cc2ccccc2F)c2c1-c1cc(Cl)ccc1OC2 [Compound 48, 3-(2-(8-chloro-N-(2-fluorobenzyl)-1-methyl-1,4-dihydrochromeno[4,3-c]pyrazole-3-carboxamido)ethoxy)-4-fluorobenzoic acid]
17 | 17 | Cc1cc(C(=O)O)cc(C)c1OCCN(CC1CCCC1)C(=O)c1nn(C)c2c1COc1ccc(Cl)cc1-2 [Compound 49, 4-(2-(8-chloro-N-(cyclopentylmethyl)-1-methyl-1,4-dihydrochromeno[4,3-c]pyrazole-3-carboxamido)ethoxy)-3,5-dimethylbenzoic acid]
18 | 11 | Cn1nc(C(=O)N(CCOc2c(F)cc(C(=O)O)cc2F)Cc2ccccc2F)c2c1-c1cc(Cl)ccc1OC2 [Compound 50, 4-(2-(8-chloro-N-(2-fluorobenzyl)-1-methyl-1,4-dihydrochromeno[4,3-c]pyrazole-3-carboxamido)ethoxy)-3,5-difluorobenzoic acid]
19 | 9.8 | Cn1nc(C(=O)N(CCOc2ccc(C(=O)O)cc2C(F)(F)F)Cc2ccccc2F)c2c1-c1cc(Cl)ccc1OC2 [Compound 51, 4-(2-(8-chloro-N-(2-fluorobenzyl)-1-methyl-1,4-dihydrochromeno[4,3-c]pyrazole-3-carboxamido)ethoxy)-3-(trifluoromethyl)benzoic acid]
20 | 2.6 | Cn1nc(C(=O)N(CCOc2c(F)cc(C(=O)O)cc2F)Cc2ccccc2)c2c1-c1cc(Cl)ccc1OC2 [Compound 52, 4-(2-(N-benzyl-8-chloro-1-methyl-1,4-dihydrochromeno[4,3-c]pyrazole-3-carboxamido)ethoxy)-3,5-difluorobenzoic acid]
21 | 17 | Cn1nc(C(=O)N(CCOc2c(F)cc(C(=O)O)cc2F)Cc2ccccc2F)c2c1-c1cc(F)ccc1OC2 [Compound 53, 3,5-difluoro-4-(2-(8-fluoro-N-(2-fluorobenzyl)-1-methyl-1,4-dihydrochromeno[4,3-c]pyrazole-3-carboxamido)ethoxy)benzoic acid]
22 | 21 | Cn1nc(C(=O)N(CCOc2c(F)cc(C(=O)O)cc2F)Cc2ccccc2)c2c1-c1cc(F)ccc1OC2 [Compound 54, 4-(2-(N-benzyl-8-fluoro-1-methyl-1,4-dihydrochromeno[4,3-c]pyrazole-3-carboxamido)ethoxy)-3,5-difluorobenzoic acid]
23 | 13 | Cn1nc(C(=O)N(CCOc2ccc(C(=O)O)cc2F)Cc2ccccc2)c2c1-c1cc(Cl)ccc1OC2 [Compound 55, 4-(2-(N-benzyl-8-chloro-1-methyl-1,4-dihydrochromeno[4,3-c]pyrazole-3-carboxamido)ethoxy)-3-fluorobenzoic Acid]
24 | 40 | Cn1nc(C(=O)N(CCOc2ccc(C(=O)O)cc2F)Cc2ccccc2)c2c1-c1cc(F)ccc1OC2 [Compound 56, 4-(2-(N-benzyl-8-fluoro-1-methyl-1,4-dihydrochromeno[4,3-c]pyrazole-3-carboxamido)ethoxy)-3-fluorobenzoic acid]
25 | 30 | Cn1nc(C(=O)N(CCOc2ccc(C(=O)O)cc2F)Cc2ccccc2)c2c1-c1cc(F)c(F)cc1OC2 [Compound 57, 4-(2-(N-benzyl-7,8-difluoro-1-methyl-1,4-dihydrochromeno[4,3-c]pyrazole-3-carboxamido)ethoxy)-3-fluorobenzoic acid]
26 | 22 | Cn1nc(C(=O)N(CCOc2ccc(C(=O)O)cc2F)Cc2cccc(F)c2)c2c1-c1cc(F)ccc1OC2 [Compound 58, 3-fluoro-4-(2-(8-fluoro-N-(3-fluorobenzyl)-1-methyl-1,4-dihydrochromeno[4,3-c]pyrazole-3-carboxamido)ethoxy)benzoic acid]

From patent US11021446B2 (NOVARTIS AG, priority 2013, dated 2021)
